Results reported in PubChem BioAssay (NCI).
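The concentration for 50% growth inhibition is given as GI50. TGI: total growth inhibition.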

Columns and labels:
Assay in all cases: inhibition of tumour cell growth, NCI panel, 384-well format
[1] = system: UACC-257 melanoma
[2] = system: LOX IMVI melanoma
[3] = system: OVCAR-5 ovarian
[4] = system: M14 melanoma
[5] = system: MDA-MB-435 melanoma
[6] = system: 786-0 renal
[7] = system: BT-549 breast
[8] = system: NCI-H226 lung
[9] = system: IGROV1 ovarian
[10] = system: MCF7 breast
[11] = system: MALME-3M melanoma
[12] = system: SW-620 colon
[13] = system: ACHN renal
[14] = system: RXF 393 renal
[15] = system: OVCAR-3 ovarian
[16] = system: HOP-92 NSCLC
[17] = system: SK-OV-3 ovarian
[18] = system: SNB-75 CNS
[19] = system: HL-60(TB) leukemia
[20] = system: K-562 leukemia
[21] = system: SF-539 CNS
[22] = system: PC-3 prostate
[23] = system: SF-295 CNS
[24] = system: A549 NSCLC
[25] = system: SF-268 CNS
[26] = system: KM12 colon
[27] = system: DU-145 prostate
[28] = system: CAKI-1 renal
[29] = system: SNB-19 CNS
[30] = system: OVCAR-4 ovarian
[31] = system: NCI-H23 lung
[32] = system: HOP-62 NSCLC
[33] = system: NCI-H522 lung
[34] = system: HCC-2998 colon
[35] = system: EKVX NSCLC
[36] = system: SN12C renal
[37] = system: HT29 colon
[38] = system: SK-MEL-5 melanoma
[39] = system: SR leukemia
[40] = system: A498 renal
[41] = system: COLO 205 colon
[42] = system: MOLT-4 leukemia
[43] = system: HCT-116 colon
[44] = system: HS 578T breast
[45] = system: NCI/ADR-RES ovarian
[46] = system: HCT-15 colon
[47] = system: MDA-MB-468 breast
[48] = system: UO-31 renal
[49] = system: NCI-H322M lung
[50] = system: T-47D breast
[51] = system: U251 glioblastoma
[52] = system: MDA-MB-231 breast
[53] = system: NCI-H460 NSCLC
[54] = system: OVCAR-8 ovarian
[55] = system: TK-10 renal
[56] = system: CCRF-CEM leukemia
[57] = system: SK-MEL-28 melanoma
[58] = system: RPMI-8226 leukemia

O=C(N[C@@H](Cc1coc2ccccc12)B(O)O)[C@@H]1C[C@H]2CC[C@@H]1O2
GI50 [1]: 1.44 µM
TGI [1]: 5.25 µM
GI50 [2]: 3.99 µM
TGI [2]: 16.8 µM
GI50 [3]: 8.44 µM
TGI [3]: > 100 µM
GI50 [4]: 2.73 µM
TGI [4]: 9.07 µM
GI50 [5]: 1.45 µM
TGI [5]: 2.99 µM
GI50 [6]: 2.74 µM
TGI [6]: 13.9 µM
GI50 [7]: 2.26 µM
TGI [7]: 5.49 µM
GI50 [8]: 0.163 µM
TGI [8]: 0.439 µM
GI50 [9]: 18.6 µM
TGI [9]: 92.1 µM
GI50 [10]: 1.68 µM
TGI [10]: > 100 µM
GI50 [11]: 1.17 µM
TGI [11]: 3.19 µM
GI50 [12]: 1.81 µM
TGI [12]: 3.83 µM
GI50 [13]: 1.09 µM
TGI [13]: > 100 µM
GI50 [14]: 1.22 µM
TGI [14]: 2.91 µM
GI50 [15]: 1.38 µM
TGI [15]: 3.8 µM
GI50 [16]: 13.9 µM
TGI [16]: 77.7 µM
GI50 [17]: 4.71 µM
TGI [17]: 55.7 µM
GI50 [18]: 2.99 µM
TGI [18]: 11.2 µM
GI50 [19]: 0.355 µM
TGI [19]: 1.36 µM
GI50 [20]: 7.21 µM
TGI [20]: > 100 µM
GI50 [21]: 1.51 µM
TGI [21]: 2.92 µM
GI50 [22]: 27.6 µM
TGI [22]: > 100 µM
GI50 [23]: 1.49 µM
TGI [23]: 4.35 µM
GI50 [24]: 10.7 µM
TGI [24]: > 100 µM
GI50 [25]: 2.45 µM
TGI [25]: 7.43 µM
GI50 [26]: 5.64 µM
TGI [26]: 23.2 µM
GI50 [27]: 4.28 µM
TGI [27]: > 100 µM
GI50 [28]: 3.24 µM
TGI [28]: > 100 µM
GI50 [29]: 4.7 µM
TGI [29]: 23.1 µM
GI50 [30]: 7.3 µM
TGI [30]: 60.6 µM
GI50 [31]: 3.7 µM
TGI [31]: 27.3 µM
GI50 [32]: 3.87 µM
TGI [32]: 17.1 µM
GI50 [33]: 2 µM
TGI [33]: 4.74 µM
GI50 [34]: 4.45 µM
TGI [34]: 20.9 µM
GI50 [35]: 6.89 µM
TGI [35]: 91.9 µM
GI50 [36]: 10.7 µM
TGI [36]: > 100 µM
GI50 [37]: 1.83 µM
TGI [37]: 4.44 µM
GI50 [38]: 2.36 µM
TGI [38]: 7.59 µM
GI50 [39]: 0.219 µM
TGI [39]: 0.605 µM
GI50 [40]: 1.62 µM
TGI [40]: 5.91 µM
GI50 [41]: 21.2 µM
TGI [41]: > 100 µM
GI50 [42]: 0.277 µM
TGI [42]: 1.13 µM
GI50 [43]: 2.08 µM
TGI [43]: 8.46 µM
GI50 [44]: 1.8 µM
TGI [44]: 3.69 µM
GI50 [45]: 34.8 µM
TGI [45]: > 100 µM
GI50 [46]: 4.26 µM
TGI [46]: 15.3 µM
GI50 [47]: 2.29 µM
TGI [47]: 9.43 µM
GI50 [48]: 3.36 µM
TGI [48]: 13.4 µM
GI50 [49]: 44.8 µM
TGI [49]: > 100 µM
GI50 [50]: 5.11 µM
TGI [50]: 45.8 µM
GI50 [51]: 14.8 µM
TGI [51]: 52.5 µM
GI50 [52]: 4.86 µM
TGI [52]: 23.3 µM
GI50 [53]: 16.7 µM
TGI [53]: > 100 µM
GI50 [54]: 30.9 µM
TGI [54]: > 100 µM
GI50 [55]: 1.84 µM
TGI [55]: 4.86 µM
GI50 [56]: 0.197 µM
TGI [56]: 0.504 µM
GI50 [57]: 1.33 µM
TGI [57]: 4.17 µM
GI50 [58]: 0.173 µM
TGI [58]: 0.359 µM
